Measurements from the NIST ThermoML archive (doi:10.1021/acs.jced.8b01075).

Experiment: molar heat capacity at saturation pressure
Details: Crystal, Small (less than 1 g) adiabatic calorimetry

[Al+3].[Al+3].[O-2].[O-2].[O-2] [aluminum oxide (Al2O3)]
Details | molar heat capacity [J/K/mol]
81.94 K | 7.415
84.02 K | 7.956
87.02 K | 8.82
90.02 K | 9.678
93.01 K | 10.58
96 K | 11.53
98.99 K | 12.53
101.97 K | 13.54
104.94 K | 14.57
107.93 K | 15.61
110.92 K | 16.7
113.92 K | 17.8
116.92 K | 18.91
119.93 K | 20.06
122.94 K | 21.18
125.95 K | 22.36
128.99 K | 23.51
132.02 K | 24.71
135.04 K | 25.91
138.07 K | 27.14
141.09 K | 28.39
144.13 K | 29.63
147.16 K | 30.83
150.2 K | 32.05
153.23 K | 33.28
156.27 K | 34.49
159.31 K | 35.7
162.35 K | 36.9
165.39 K | 38.13
168.44 K | 39.32
171.48 K | 40.52
174.52 K | 41.67
177.6 K | 42.88
180.64 K | 44.01
183.68 K | 45.17
186.72 K | 46.24
189.76 K | 47.4
192.8 K | 48.56
195.84 K | 49.61
198.88 K | 50.65
201.91 K | 51.8
204.95 K | 52.77
207.97 K | 53.81
211 K | 54.84
214.02 K | 55.88
217.04 K | 56.95
220.05 K | 57.85
223.06 K | 58.88
226.07 K | 59.93
229.07 K | 60.93
232.07 K | 61.8
235.06 K | 62.67
238.05 K | 63.55
241.03 K | 64.4
244.01 K | 65.33
246.98 K | 66.26
249.94 K | 67.1
252.9 K | 67.9
255.85 K | 68.71
258.78 K | 69.49
261.71 K | 70.19
264.63 K | 71.03
267.53 K | 71.84
270.43 K | 72.53

O=C(O)c1ccccc1 [benzoic acid]
Details | molar heat capacity [J/K/mol]
4.54 K | 0.238
4.75 K | 0.256
4.88 K | 0.271
5.02 K | 0.296
5.16 K | 0.31
5.29 K | 0.316
5.42 K | 0.327
5.53 K | 0.343
5.64 K | 0.358
5.75 K | 0.372
5.85 K | 0.388
5.95 K | 0.419
6.07 K | 0.438
6.22 K | 0.468
6.38 K | 0.502
6.53 K | 0.521
6.7 K | 0.571
6.84 K | 0.618
6.99 K | 0.662
7.14 K | 0.7
7.29 K | 0.731
7.43 K | 0.778
7.57 K | 0.823
7.72 K | 0.893
7.86 K | 0.954
8.01 K | 0.978
8.16 K | 1.053
8.31 K | 1.116
8.46 K | 1.163
8.6 K | 1.263
8.76 K | 1.329
8.91 K | 1.384
9.07 K | 1.472
9.22 K | 1.512
9.38 K | 1.58
9.53 K | 1.649
9.69 K | 1.725
9.84 K | 1.858
10 K | 1.902
10.21 K | 2.036
10.49 K | 2.207
10.76 K | 2.354
11.04 K | 2.56
11.32 K | 2.751
11.6 K | 2.956
11.88 K | 3.123
12.17 K | 3.346
12.45 K | 3.529
12.75 K | 3.819
13.03 K | 4.037
13.33 K | 4.28
13.62 K | 4.532
13.91 K | 4.755
14.01 K | 4.933
14.31 K | 5.137
14.6 K | 5.519
14.9 K | 5.794
15.19 K | 6.073
15.49 K | 6.356
15.79 K | 6.616
16.09 K | 6.911
16.39 K | 7.207
16.7 K | 7.541
17 K | 7.836
17.3 K | 8.091
17.6 K | 8.409
17.91 K | 8.786
18.21 K | 9.095
18.52 K | 9.471
18.83 K | 9.71
19.13 K | 10.14
19.44 K | 10.4
19.58 K | 10.55
19.75 K | 10.7
19.89 K | 10.86
20.52 K | 11.49
21.41 K | 12.5
22.31 K | 13.49
23.22 K | 14.56
24.13 K | 15.56
25.05 K | 16.55
25.98 K | 17.58
26.92 K | 18.63
27.86 K | 19.67
28.81 K | 20.7
29.76 K | 21.73
30.71 K | 22.75
31.67 K | 23.72
32.64 K | 24.69
33.6 K | 25.68
34.57 K | 26.57
35.56 K | 27.57
36.53 K | 28.47
37.51 K | 29.44
38.5 K | 30.44
39.89 K | 31.71
40.89 K | 32.53
41.89 K | 33.31
42.89 K | 33.99
43.89 K | 34.84
44.89 K | 35.7
45.89 K | 36.42
46.89 K | 37.22
47.9 K | 38.04
48.9 K | 38.77
49.91 K | 39.47
50.92 K | 40.13
51.94 K | 40.84
52.95 K | 41.56
53.97 K | 42.16
54.98 K | 42.68
56.02 K | 43.44
57.03 K | 44.09
58.06 K | 44.66
59.17 K | 45.31
60.19 K | 45.98
61.22 K | 46.55
62.24 K | 47.19
63.27 K | 47.79
64.3 K | 48.32
65.32 K | 48.9
66.35 K | 49.45
67.38 K | 49.97
68.41 K | 50.43
69.43 K | 50.89
71.27 K | 51.74
73.3 K | 52.71
75.33 K | 53.69
77.36 K | 54.68
78.78 K | 55.18
79.56 K | 55.66
81.07 K | 56.41
83.09 K | 57.46
85.1 K | 58.18
87.11 K | 58.97
89.11 K | 59.73
91.11 K | 60.5
93.12 K | 61.27
95.11 K | 62.07
97.11 K | 62.81
99.11 K | 63.57
101.6 K | 64.59
104.58 K | 65.66
107.58 K | 66.69
110.58 K | 67.85
113.59 K | 69.03
116.61 K | 70.18
119.62 K | 71.3
122.63 K | 72.54
125.65 K | 73.61
128.67 K | 74.78
131.69 K | 75.96
134.72 K | 77.09
137.76 K | 78.23
140.79 K | 79.41
143.83 K | 80.49
146.87 K | 81.68
149.91 K | 82.93
152.95 K | 84.03
156 K | 85.17
159.05 K | 86.37
162.09 K | 87.59
165.18 K | 88.85
168.23 K | 90.02
171.28 K | 91.22
174.33 K | 92.46
177.38 K | 93.64
180.44 K | 94.8
183.49 K | 96.08
186.54 K | 97.26
189.6 K | 98.55
192.66 K | 99.83
195.71 K | 101
198.77 K | 102.3
201.83 K | 103.6
204.89 K | 104.9
208.45 K | 106.6
212.52 K | 108.2
216.67 K | 110.1
220.76 K | 111.7
224.85 K | 113.5
228.95 K | 115.3
237.16 K | 119
241.28 K | 120.8
245.39 K | 122.6
249.52 K | 124.4
253.64 K | 126.3
257.77 K | 128.1
261.9 K | 130
266.04 K | 132
270.19 K | 133.8
274.34 K | 135.7
278.49 K | 137.6
282.77 K | 139.8
286.93 K | 141.6
291.09 K | 143.5
295.26 K | 145.5
299.42 K | 147.4
304.38 K | 149.7
310.53 K | 152.6
317.37 K | 155.7
324.19 K | 158.8
330.99 K | 162
